This passage reports Emax results from paper PMC6178849, “Activation of Glutathione Peroxidase 4 as a Novel Anti-inflammatory Strategy” (Frontiers in Pharmacology, 2018).

For the experiment, the target named is T1, glutathione peroxidase 4 (hGPX4-C) (Homo sapiens, UniProt P36969, U73C).
T1 construct: gene GPX4; human cytosolic GPX4 (c-GPX4), his-tagged, expressed in E. coli M15
Nature of the experiment: activation of purified GPX4 in a glutathione reductase/NADPH coupled assay; Tm shift about […]°C; D23A mutant loses activation; CETSA in HEK293T cells. Type of experiment: biochemical. To be noted: read-out: % (maximum activation).

T1 sequence (P36969 other isoform, or with tags, fused parts or gaps U73C): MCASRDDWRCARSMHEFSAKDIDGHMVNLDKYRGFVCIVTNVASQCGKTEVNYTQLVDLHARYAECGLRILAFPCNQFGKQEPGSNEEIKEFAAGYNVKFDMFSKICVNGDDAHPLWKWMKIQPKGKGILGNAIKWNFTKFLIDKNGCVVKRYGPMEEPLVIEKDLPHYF

Turning to `NC1=NC2(O)C(=O)c3ccccc3C2(O)N1` (stereo not shown) [compound 102, PKUMDL-LC-102], the Emax amounted to 236%.
